# Results taken from patent US8168221B2, “Composition 064” (AstraZeneca AB, priority 2007, dated 2012).
# Legend:
# [1] = Compound (I) forced degradation study, solutions exposed to light at room temperature; format: physicochemical
# Experimental: (§1) The Compound (I), Compound (I) formyl hydrazide, and total impurities contents were determined using High Performance Liquid Chromatography HPLC. 10 μL sample was injected into a mobile phase comprising water/acetonitrile/formic acid in the ratios 900:100:2 (Eluent A)/400:600:2 (Eluent B), as defined by the gradient program in Table 1 below. Separation of impurities was performed using a column 15 cm long×4.6 mm internal diameter packed with Waters Symmetry C8 stationary phase having 3.5 μm particle size. […] “ND” in Tables 2 and 3 refers to “not determined”
# [2] = Compound (I) forced degradation study, aqueous buffer solutions protected from light; format: physicochemical; details: for Compound (I) formyl hydrazide, % w/w (24 hours) / Compound (I) hydrazide, % w/w (24 hours) / Compound (I), % w/w (24 hours) / Compound (I), % w/w (initial) / Compound (I) formyl hydrazide, % w/w (initial): protected from light; for Compound (I), % w/w (initial): 0.5 mg/mL
# Experimental: as §1
smiles,measurement,setting,value
"COc1nc(C)cnc1NS(=O)(=O)c1cccnc1-c1ccc(-c2nnco2)cc1 [Compound (I), N-(3-methoxy-5-methylpyrazin-2-yl)-2-(4-[1,3,4-oxadiazol-2-yl]phenyl)pyridine-3-sulphonamide]","Compound (I) formyl hydrazide, % w/w (24 hours)","[1]; pH 1.2, 24 hours",16.35 % w/w
same,"Compound (I) hydrazide, % w/w (24 hours)","[1]; pH 1.2, 24 hours",ND/0.32 % w/w
same,"Compound (I), % w/w (24 hours)","[1]; pH 1.2, 24 hours",82.33 % w/w
same,"Compound (I) formyl hydrazide, % w/w (initial)","[1]; pH 1.2, initial",1.39 % w/w
same,"Compound (I), % w/w (initial)","[1]; pH 1.2, initial",98.82 % w/w
same,"Compound (I) formyl hydrazide, % w/w (24 hours)","[1]; pH 3.0, 24 hours",0.30 % w/w
same,"Compound (I), % w/w (24 hours)","[1]; pH 3.0, 24 hours",95.76 % w/w
same,"Compound (I) formyl hydrazide, % w/w (initial)","[1]; pH 3.0, initial",0.05 % w/w
same,"Compound (I), % w/w (initial)","[1]; pH 3.0, initial",99.39 % w/w
same,"Compound (I), % w/w (24 hours)","[1]; pH 7.2, 24 hours",97.04 % w/w
same,"Compound (I), % w/w (initial)","[1]; pH 7.2, initial",98.78 % w/w
same,"Compound (I) formyl hydrazide, % w/w (24 hours)","[1]; pH 11.0, 24 hours",0.15 % w/w
same,"Compound (I), % w/w (24 hours)","[1]; pH 11.0, 24 hours",98.66 % w/w
same,"Compound (I) formyl hydrazide, % w/w (initial)","[1]; pH 11.0, initial",< 0.05 % w/w
same,"Compound (I), % w/w (initial)","[1]; pH 11.0, initial",99.91 % w/w
same,hydrolytic degradation (in words),[2]; low and high pH,subject to hydrolytic degradation at low and high pH
same,"Compound (I) formyl hydrazide, % w/w (24 hours)","[2]; pH 1.2, 37° C.",32.16 % w/w
same,"Compound (I) hydrazide, % w/w (24 hours)","[2]; pH 1.2, 37° C.",47.34 % w/w
same,"Compound (I), % w/w (24 hours)","[2]; pH 1.2, 37° C.",0.89 % w/w
same,"Compound (I), % w/w (initial)","[2]; pH 1.2, 37° C.",96.69/ % w/w
same,"Compound (I) formyl hydrazide, % w/w (initial)","[2]; pH 1.2, 37° C.",1.58/ % w/w
same,"Compound (I) formyl hydrazide, % w/w (24 hours)","[2]; pH 1.2, RT",59.83 % w/w
same,"Compound (I) hydrazide, % w/w (24 hours)","[2]; pH 1.2, RT",13.87 % w/w
same,"Compound (I), % w/w (24 hours)","[2]; pH 1.2, RT",23.04 % w/w
same,"Compound (I), % w/w (initial)","[2]; pH 1.2, RT",97.57/ % w/w
same,"Compound (I) formyl hydrazide, % w/w (initial)","[2]; pH 1.2, RT",1.99/ % w/w
same,"Compound (I) formyl hydrazide, % w/w (24 hours)","[2]; pH 3.0, 37° C.",3.09 % w/w
same,"Compound (I), % w/w (24 hours)","[2]; pH 3.0, 37° C.",96.56 % w/w
same,"Compound (I), % w/w (initial)","[2]; pH 3.0, 37° C.",99.43/ % w/w
same,"Compound (I) formyl hydrazide, % w/w (24 hours)","[2]; pH 3.0, RT",1.66 % w/w
same,"Compound (I) hydrazide, % w/w (24 hours)","[2]; pH 3.0, RT",<0.05 % w/w
same,"Compound (I), % w/w (24 hours)","[2]; pH 3.0, RT",84.70 % w/w
same,"Compound (I), % w/w (initial)","[2]; pH 3.0, RT",99.45/ % w/w
same,"Compound (I) hydrazide, % w/w (24 hours)","[2]; pH 7.2, 37° C.",<0.05 % w/w
same,"Compound (I), % w/w (24 hours)","[2]; pH 7.2, 37° C.",99.17 % w/w
same,"Compound (I), % w/w (initial)","[2]; pH 7.2, 37° C.",98.73/ % w/w
same,"Compound (I) hydrazide, % w/w (24 hours)","[2]; pH 7.2, RT",<0.05 % w/w
same,"Compound (I), % w/w (24 hours)","[2]; pH 7.2, RT",99.45 % w/w
same,"Compound (I), % w/w (initial)","[2]; pH 7.2, RT",99.14/ % w/w
same,"Compound (I) formyl hydrazide, % w/w (24 hours)","[2]; pH 11.0, 37° C.",4.16 % w/w
same,"Compound (I) hydrazide, % w/w (24 hours)","[2]; pH 11.0, 37° C.",<0.05 % w/w
same,"Compound (I), % w/w (24 hours)","[2]; pH 11.0, 37° C.",94.50 % w/w
same,"Compound (I), % w/w (initial)","[2]; pH 11.0, 37° C.",99.17/ % w/w
same,"Compound (I) formyl hydrazide, % w/w (24 hours)","[2]; pH 11.0, RT",1.35 % w/w
same,"Compound (I), % w/w (24 hours)","[2]; pH 11.0, RT",94.21 % w/w
same,"Compound (I), % w/w (initial)","[2]; pH 11.0, RT",98.68/ % w/w
same,"Compound (I) formyl hydrazide, % w/w (initial)","[2]; pH 11.0, RT",0.07/ % w/w
